# The source made the active and inactive calls. No cut-off for these calls is given here.
# Legend:
# [1] = Metabolic stability in human liver microsomes assessed as half life; format: ADME, Microsome
# [2] = system: Plasma; experiment: Anticoagulant activity in human plasma assessed as activated partial thromboplastin time; format: functional
# [3] = molecular target: Coagulation factor XI (Homo sapiens, UniProt P03951); experiment: Binding affinity to human coagulation factor 11a using L-Pyroglutamyl-L-prolyl-L-arginine p-Nitroaniline as substrate assessed as inhibition constant measured upto 120 mins by spectrophotometric analysis
# Chain of Coagulation factor XI (P03951 19-387 limits assumed): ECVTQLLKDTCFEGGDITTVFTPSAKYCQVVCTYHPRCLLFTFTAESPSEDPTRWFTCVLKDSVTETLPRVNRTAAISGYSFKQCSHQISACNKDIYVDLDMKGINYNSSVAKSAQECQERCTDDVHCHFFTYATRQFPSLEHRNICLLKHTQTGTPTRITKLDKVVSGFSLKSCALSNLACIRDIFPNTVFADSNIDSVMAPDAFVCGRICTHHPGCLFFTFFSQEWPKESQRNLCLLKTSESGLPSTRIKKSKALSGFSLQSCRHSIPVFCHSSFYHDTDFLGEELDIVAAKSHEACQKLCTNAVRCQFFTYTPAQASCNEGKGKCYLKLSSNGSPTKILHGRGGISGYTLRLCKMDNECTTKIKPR
# Chain of Coagulation factor XI (P03951 388-625 limits assumed): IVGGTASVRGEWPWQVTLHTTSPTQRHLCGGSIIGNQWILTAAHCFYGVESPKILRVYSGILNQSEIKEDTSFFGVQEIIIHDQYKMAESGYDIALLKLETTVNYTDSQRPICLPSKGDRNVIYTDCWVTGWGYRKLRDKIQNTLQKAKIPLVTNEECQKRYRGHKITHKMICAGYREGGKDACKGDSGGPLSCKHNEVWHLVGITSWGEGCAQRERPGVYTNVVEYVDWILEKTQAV
# [4] = Aqueous solubility of the compound at pH 6.5; format: physicochemical; conditions: aqueous medium
# [5] = molecular target: Kallikrein-1 (Homo sapiens, UniProt P06870); experiment: Binding affinity to human tissue kallikrein-1 assessed as inhibition constant using H-D-Valyl-L-leucyl-L-arginine 7-amino-4-trifluoromethylcoumarin as substrate measured upto 120 mins by spectrofluorometric analysis; format: tissue-based
# [6] = Clearance in cynomolgus monkey at 1.50 mg/kg, po or 0.50 mg/kg, iv; format: ADME, organism-based, Macaca fascicularis; conditions: in vivo, dose 1.5 mg/kg
# [7] = molecular target: Vitamin K-dependent protein C (Homo sapiens, UniProt P04070); experiment: Binding affinity to human activated protein C assessed as inhibition constant using L-Pyroglutamyl-L-prolyl-L-arginine p-Nitroaniline as substrate measured upto 120 mins by spectrophotometric analysis
# Chain of Vitamin K-dependent protein C (P04070 43-197 limits assumed): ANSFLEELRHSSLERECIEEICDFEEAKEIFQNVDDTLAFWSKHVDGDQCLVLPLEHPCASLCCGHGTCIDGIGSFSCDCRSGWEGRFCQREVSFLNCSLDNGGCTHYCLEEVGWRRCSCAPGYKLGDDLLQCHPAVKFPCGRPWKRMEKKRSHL
# Chain of Vitamin K-dependent protein C (P04070 212-461 limits assumed): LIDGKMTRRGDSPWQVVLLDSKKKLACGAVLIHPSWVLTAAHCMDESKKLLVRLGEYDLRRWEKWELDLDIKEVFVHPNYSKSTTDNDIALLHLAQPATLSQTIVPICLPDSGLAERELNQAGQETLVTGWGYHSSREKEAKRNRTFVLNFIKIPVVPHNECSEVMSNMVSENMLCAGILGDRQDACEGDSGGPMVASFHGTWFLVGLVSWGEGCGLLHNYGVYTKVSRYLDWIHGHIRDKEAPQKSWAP
# [8] = species: Homo sapiens; experiment: Inhibition of Monoamine oxidase (unknown origin) at 16 to 94 ug/ml; conditions: dose 16-94 µg/ml
# [9] = molecular target: Coagulation factor IX (Homo sapiens, UniProt P00740); experiment: Binding affinity to human coagulation factor 9a assessed as inhibition constant using Methylsulfonyl-D-cyclohexylglycyl-glycylarginine 7-amino-4-methylcoumarin as substrate measured upto 120 mins by spectrofluorometric analysis
# Chain of Coagulation factor IX (P00740 47-191 limits assumed): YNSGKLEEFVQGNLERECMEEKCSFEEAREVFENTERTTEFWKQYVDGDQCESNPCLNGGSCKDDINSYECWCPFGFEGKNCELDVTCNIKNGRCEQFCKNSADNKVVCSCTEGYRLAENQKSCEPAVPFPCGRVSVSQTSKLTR
# Chain of Coagulation factor IX (P00740 227-461 limits assumed): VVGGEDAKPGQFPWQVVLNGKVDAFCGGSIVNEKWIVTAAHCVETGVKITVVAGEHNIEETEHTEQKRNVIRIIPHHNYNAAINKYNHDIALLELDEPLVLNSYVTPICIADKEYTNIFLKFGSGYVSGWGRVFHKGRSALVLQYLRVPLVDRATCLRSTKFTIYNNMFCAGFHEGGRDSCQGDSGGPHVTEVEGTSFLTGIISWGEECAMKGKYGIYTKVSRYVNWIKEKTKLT
# [10] = Aqueous solubility of the compound at pH 1.0; format: physicochemical; conditions: aqueous medium
# [11] = Metabolic stability in Sprague-Dawley rat liver microsomes assessed as half life; format: ADME, Microsome; parameters: dose or concentration left out as unconfirmed
# [12] = molecular target: Coagulation factor XII (Homo sapiens, UniProt P00748); experiment: Binding affinity to human coagulation factor 12a assessed as inhibition constant using H-D-Cyclohexylalanyl-glycyl-arginyl p-Nitroaniline as substrate measured upto 120 mins by spectrophotometric analysis
# Chain of Coagulation factor XII (P00748 20-372 limits assumed): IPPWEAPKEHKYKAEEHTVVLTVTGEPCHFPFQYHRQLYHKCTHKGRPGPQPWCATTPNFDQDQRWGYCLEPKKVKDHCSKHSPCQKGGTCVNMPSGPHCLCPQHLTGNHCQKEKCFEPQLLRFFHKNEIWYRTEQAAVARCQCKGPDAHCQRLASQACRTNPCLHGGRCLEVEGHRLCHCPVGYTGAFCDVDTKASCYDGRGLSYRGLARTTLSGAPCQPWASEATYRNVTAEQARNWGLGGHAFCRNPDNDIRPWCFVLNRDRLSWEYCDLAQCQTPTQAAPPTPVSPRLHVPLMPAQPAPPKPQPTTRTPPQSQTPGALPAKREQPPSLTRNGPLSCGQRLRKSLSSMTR
# Chain of Coagulation factor XII (P00748 373-615 limits assumed): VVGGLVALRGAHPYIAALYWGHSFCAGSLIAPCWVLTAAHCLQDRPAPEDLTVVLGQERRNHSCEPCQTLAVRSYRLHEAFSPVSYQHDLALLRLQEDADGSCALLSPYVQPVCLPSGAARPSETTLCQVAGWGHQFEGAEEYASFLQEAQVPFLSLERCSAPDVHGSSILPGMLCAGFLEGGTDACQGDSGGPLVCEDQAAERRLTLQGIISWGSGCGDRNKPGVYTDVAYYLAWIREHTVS
# [13] = AUC in Sprague-Dawley rat at 1.04 mg/kg, po; format: ADME, organism-based; parameters: dose 1.04 mg/kg; conditions: in vivo
# [14] = Volume of distribution at steady state in Sprague-Dawley rat at 1.04 mg/kg, po or 0.52 mg/kg, iv; format: ADME, organism-based; conditions: in vivo, read-out: Vdss
# [15] = AUC in cynomolgus monkey at 1.50 mg/kg, po; format: ADME, organism-based, Macaca fascicularis; parameters: dose 1.5 mg/kg; conditions: in vivo, 1.5 mg/kg
# [16] = molecular target: Chymotrypsin (Homo sapiens, UniProt Q99895+P17538+P40313+Q6GPI1); experiment: Binding affinity to human chymotrypsin assessed as inhibition constant using 3-Carbomethoxypropionyl-L-arginyl-Lprolyl-L-tyrosine p-Nitroaniline as substrate measured upto 120 mins by spectrophotometric analysis; format: protein assay
# [17] = Half life in cynomolgus monkey at 1.50 mg/kg, po or 0.50 mg/kg, iv; format: ADME, organism-based, Macaca fascicularis; conditions: in vivo, dose 1.5 mg/kg
# [18] = molecular target: Neutrophil elastase (Homo sapiens, UniProt P08246); experiment: Binding affinity to human neutrophil elastase assessed as inhibition constant using Methoxysuccinyl-L-alanyl-L-alanyl-L-prolylL-valine p-Nitroaniline as substrate measured upto 120 mins by spectrophotometric analysis
# Chain of Neutrophil elastase (P08246 whole entry): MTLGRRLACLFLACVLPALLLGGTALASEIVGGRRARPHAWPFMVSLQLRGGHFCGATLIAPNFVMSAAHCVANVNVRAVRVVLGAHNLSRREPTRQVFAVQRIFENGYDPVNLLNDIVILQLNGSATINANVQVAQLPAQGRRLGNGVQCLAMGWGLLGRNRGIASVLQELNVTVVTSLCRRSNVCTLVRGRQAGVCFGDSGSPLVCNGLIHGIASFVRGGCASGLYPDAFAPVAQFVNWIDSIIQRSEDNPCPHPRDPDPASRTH
# [19] = molecular target: Acetylcholinesterase (Homo sapiens) (UniProt P22303); experiment: Inhibition of acetylcholinesterase (unknown origin) at 16 to 94 ug/ml; conditions: dose 16-94 µg/ml
# Chain of Acetylcholinesterase (Homo sapiens) (P22303 whole entry): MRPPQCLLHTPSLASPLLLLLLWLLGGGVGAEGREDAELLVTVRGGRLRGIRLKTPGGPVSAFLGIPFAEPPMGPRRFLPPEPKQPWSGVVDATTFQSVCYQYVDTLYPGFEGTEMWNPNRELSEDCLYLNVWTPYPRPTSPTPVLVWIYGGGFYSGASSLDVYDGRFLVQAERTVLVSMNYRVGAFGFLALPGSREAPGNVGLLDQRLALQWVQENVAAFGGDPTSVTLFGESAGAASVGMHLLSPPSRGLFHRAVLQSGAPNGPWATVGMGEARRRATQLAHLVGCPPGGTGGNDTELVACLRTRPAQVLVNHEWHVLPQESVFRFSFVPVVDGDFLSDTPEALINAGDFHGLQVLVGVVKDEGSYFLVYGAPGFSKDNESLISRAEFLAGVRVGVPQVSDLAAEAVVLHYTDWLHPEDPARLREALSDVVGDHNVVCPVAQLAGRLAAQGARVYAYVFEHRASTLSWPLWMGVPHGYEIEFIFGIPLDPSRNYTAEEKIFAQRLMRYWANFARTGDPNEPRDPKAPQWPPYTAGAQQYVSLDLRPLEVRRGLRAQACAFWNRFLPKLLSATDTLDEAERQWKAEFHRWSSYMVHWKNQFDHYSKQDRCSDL
# [20] = molecular target: Plasminogen (Homo sapiens, UniProt P00747); experiment: Binding affinity to human plasmin assessed as inhibition constant using H-D-Valyl-L-leucyl-L-lysine p-Nitroaniline as substrate measured upto 120 mins by spectrophotometric analysis
# Chain of Plasminogen (P00747 97-580 limits assumed): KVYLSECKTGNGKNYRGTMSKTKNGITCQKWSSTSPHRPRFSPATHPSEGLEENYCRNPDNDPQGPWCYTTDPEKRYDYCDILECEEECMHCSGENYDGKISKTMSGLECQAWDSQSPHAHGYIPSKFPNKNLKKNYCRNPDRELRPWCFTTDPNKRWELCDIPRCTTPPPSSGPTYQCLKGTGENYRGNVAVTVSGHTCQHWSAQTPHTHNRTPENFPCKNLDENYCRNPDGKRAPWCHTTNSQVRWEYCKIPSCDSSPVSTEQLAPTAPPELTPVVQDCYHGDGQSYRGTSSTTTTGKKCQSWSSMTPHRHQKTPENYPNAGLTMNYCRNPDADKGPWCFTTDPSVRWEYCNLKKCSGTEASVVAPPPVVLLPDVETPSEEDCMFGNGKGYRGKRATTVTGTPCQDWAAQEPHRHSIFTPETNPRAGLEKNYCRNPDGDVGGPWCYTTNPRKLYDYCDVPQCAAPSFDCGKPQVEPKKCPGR
# Chain of Plasminogen (P00747 581-810 limits assumed): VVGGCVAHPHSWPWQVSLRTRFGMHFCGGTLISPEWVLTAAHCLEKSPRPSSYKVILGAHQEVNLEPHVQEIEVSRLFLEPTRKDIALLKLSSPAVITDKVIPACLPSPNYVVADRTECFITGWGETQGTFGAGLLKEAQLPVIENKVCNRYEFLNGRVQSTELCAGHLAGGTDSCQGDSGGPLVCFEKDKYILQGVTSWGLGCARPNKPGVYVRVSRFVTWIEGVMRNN
# [21] = Fraction unbound in Sprague-Dawley rat plasma; format: ADME, cell-free
# [22] = molecular target: Myeloblastin (Homo sapiens, UniProt P24158); experiment: Binding affinity to human neutrophil proteinase 3 assessed as inhibition constant using Methoxysuccinyl-L-alanyl-L-alanyl-L-prolylL-valine p-Nitroaniline as substrate measured upto 120 mins by spectrophotometric analysis
# Chain of Myeloblastin (P24158 whole entry): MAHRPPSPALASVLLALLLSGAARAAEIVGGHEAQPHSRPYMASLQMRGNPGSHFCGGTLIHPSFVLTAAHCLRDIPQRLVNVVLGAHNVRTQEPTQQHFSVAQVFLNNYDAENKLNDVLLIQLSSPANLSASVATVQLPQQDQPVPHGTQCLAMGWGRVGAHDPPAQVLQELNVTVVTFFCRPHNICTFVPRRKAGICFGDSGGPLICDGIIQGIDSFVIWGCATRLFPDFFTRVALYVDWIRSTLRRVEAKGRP
# [23] = molecular target: Chymase (Homo sapiens, UniProt P23946); experiment: Binding affinity to human mast cell chymase assessed as inhibition constant using Succinyl-L-alanyl-L-alanyl-L-prolyl-L phenylalanine p-Nitroaniline as substrate measured upto 120 mins by spectrophotometric analysis
# [24] = Metabolic stability in cynomolgus monkey liver microsomes assessed as half life; format: ADME, Macaca fascicularis, Microsome; parameters: dose or concentration left out as unconfirmed
# [25] = Oral bioavailability in Sprague-Dawley rat at 1.04 mg/kg; format: ADME, organism-based; conditions: in vivo
# [26] = molecular target: Tissue-type plasminogen activator (Homo sapiens, UniProt P00750); experiment: Binding affinity to human tissue type plasminogen assessed as inhibition constant using Methanesulfonyl-D-Cyclohexylalanyl-glycylarginine p-Nitroaniline as substrate measured upto 120 mins by spectrophotometric analysis
# [27] = molecular target: Cathepsin G (Homo sapiens, UniProt P08311); experiment: Binding affinity to human neutrophil cathepsin G assessed as inhibition constant using Succinyl-L-alanyl-L-alanyl-L-prolyl-Lphenylalanine p-Nitroaniline as substrate measured upto 120 mins by spectrophotometric analysis
# [28] = molecular target: Coagulation factor X (Homo sapiens, UniProt P00742); experiment: Binding affinity to human coagulation factor 10a assessed as inhibition constant using N-Benzoyl-L-isoleucyl-L-glutamyl-glycyl-Larginine p-Nitroaniline and its gamma glutamyl methyl ester as substrate measured upto 120 mins by spectrophotometric analysis
# Chain of Coagulation factor X (P00742 41-179 limits assumed): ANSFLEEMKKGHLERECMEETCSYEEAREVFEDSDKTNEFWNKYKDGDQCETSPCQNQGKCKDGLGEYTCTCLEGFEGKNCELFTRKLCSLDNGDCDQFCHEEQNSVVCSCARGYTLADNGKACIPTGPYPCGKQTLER
# Chain of Coagulation factor X (P00742 235-488 limits assumed): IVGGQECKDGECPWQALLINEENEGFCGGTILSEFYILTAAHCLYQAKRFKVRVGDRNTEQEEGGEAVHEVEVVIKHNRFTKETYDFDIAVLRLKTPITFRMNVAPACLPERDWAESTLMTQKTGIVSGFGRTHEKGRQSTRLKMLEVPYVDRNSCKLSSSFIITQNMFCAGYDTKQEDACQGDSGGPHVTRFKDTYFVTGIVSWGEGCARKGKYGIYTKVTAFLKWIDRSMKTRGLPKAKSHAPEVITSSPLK
# [29] = molecular target: Coagulation factor VII (Homo sapiens, UniProt P08709); experiment: Binding affinity to recombinant human coagulation factor 7a assessed as inhibition constant using N-alpha-Benzyloxycarbonyl-D-arginyl-glycyl-Larginine p-Nitroaniline as substrate measured upto 120 mins by coupled enzyme assay
# Chain of Coagulation factor VII (P08709 61-212 limits assumed): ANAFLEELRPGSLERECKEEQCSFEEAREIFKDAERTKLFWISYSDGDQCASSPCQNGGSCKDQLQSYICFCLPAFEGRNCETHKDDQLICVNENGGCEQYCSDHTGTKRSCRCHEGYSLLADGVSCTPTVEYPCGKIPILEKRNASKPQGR
# Chain of Coagulation factor VII (P08709 213-466 limits assumed): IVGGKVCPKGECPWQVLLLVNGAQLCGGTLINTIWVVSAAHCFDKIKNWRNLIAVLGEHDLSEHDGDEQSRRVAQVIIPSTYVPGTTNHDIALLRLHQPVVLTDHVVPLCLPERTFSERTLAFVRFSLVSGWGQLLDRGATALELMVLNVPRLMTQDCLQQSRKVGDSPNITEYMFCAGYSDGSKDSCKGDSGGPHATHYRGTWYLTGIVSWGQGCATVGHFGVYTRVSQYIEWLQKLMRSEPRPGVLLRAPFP
# [30] = Fraction unbound in human plasma; format: ADME, cell-free
# [31] = molecular target: Trypsin (Homo sapiens, UniProt P07477+P07478+P35030); experiment: Binding affinity to human trypsin assessed as inhibition constant using N-Benzoyl-L-isoleucyl-L-glutamyl-glycyl-Larginine p-Nitroaniline and its gamma glutamyl methyl ester as substrate measured upto 120 mins by spectrophotometric analysis; format: protein assay
# [32] = Half life in Sprague-Dawley rat at 1.04 mg/kg, po or 0.52 mg/kg, iv; format: ADME, organism-based; conditions: in vivo
# [33] = Clearance in Sprague-Dawley rat at 1.04 mg/kg, po or 0.52 mg/kg, iv; format: ADME, organism-based; conditions: in vivo
# [34] = Protein binding in cynomolgus monkey plasma; format: ADME, cell-free, Macaca fascicularis; conditions: read-out: PPB (converted)
# [35] = Volume of distribution at steady state in cynomolgus monkey at 1.50 mg/kg, po or 0.50 mg/kg, iv; format: ADME, organism-based, Macaca fascicularis; conditions: in vivo, dose 1.5 mg/kg, read-out: Vdss
# [36] = Oral bioavailability in cynomolgus monkey at 1.50 mg/kg; format: ADME, organism-based, Macaca fascicularis; conditions: in vivo, dose 1.5 mg/kg
# [37] = species: Homo sapiens; experiment: Inhibition of Phosphodiesterase (unknown origin) at 16 to 94 ug/ml; conditions: dose 16-94 µg/ml
# [38] = Protein binding in Sprague-Dawley rat plasma assessed as bound fraction; format: ADME, cell-free; parameters: dose or concentration left out as unconfirmed
# [39] = molecular target: Urokinase-type plasminogen activator (Homo sapiens, UniProt P00749); experiment: Binding affinity to human urokinase assessed as inhibition constant using L-Pyroglutamyl-glycyl-L-arginine p-Nitroaniline as substrate upto 120 mins by spectrophotometric analysis
structure (smiles),measurement,setting,value
CCn1ncc2c1-c1ccnc(c1)[C@@H](N1CCC(c3cc(Cl)ccc3-n3ccnn3)=CC1=O)CCC[C@@H](C)C(=O)N2,half-life,[1],0.167 h
same,EC1.5,[2],0.48 µM
same,Ki,[3],0.0013 µM
C[C@@H]1CCC[C@H](N2CCC(c3cc(Cl)ccc3-n3cc(Cl)nn3)=CC2=O)c2cc(ccn2)-c2c(cnn2C)NC1=O,half-life,[1],1.08 h
same,EC1.5,[2],0.3 µM
C[C@@H]1CCC[C@H](N2CCC(c3cc(Cl)ccc3-n3ccnn3)=CC2=O)c2cc(ccn2)-c2c(cnn2C2CC2)NC1=O,half-life,[1],0.0833 h
same,EC1.5,[2],0.49 µM
same,Ki,[3],0.0011 µM
C[C@@H]1CCC[C@H](N2CCC(c3c(F)ccc(Cl)c3F)=CC2=O)c2cc(ccn2)-c2cn[nH]c2NC1=O,Ki,[3],0.33 µM
C[C@@H]1CCC[C@H](n2cnc(-c3cc(Cl)ccc3-n3cc(Cl)nn3)cc2=O)c2cc(ccn2)-c2c(cnn2C(F)F)NC1=O [MILVEXIAN],solubility,[4],6 µg/mL
same,Ki,[5],> 11 µM
same,clearance,[6],10.3 mL/min/kg
same,Ki,[7],> 21 µM
same,inhibition,[8],inactive
same,Ki,[9],> 27 µM
same,solubility,[10],8 µg/mL
same,half-life,[11],> 2 h
same,Ki,[12],> 3 µM
same,half-life,[1],> 2 h
same,AUC,[13],0.7 µM·h
same,Vd,[14],0.9 L/kg
same,AUC,[15],1.22 µM·h
same,Ki,[16],0.035 µM
same,half-life,[17],2.7 h
same,Ki,[18],> 8 µM
same,inhibition,[19],inactive
same,EC1.5,[2],0.5 µM
same,Ki,[20],2.65 µM
same,fraction unbound,[21],0.029
same,Ki,[22],> 12 µM
same,Ki,[23],> 13 µM
same,half-life,[24],1.38 h
same,bioavailability,[25],18%
same,Ki,[26],2.3 µM
same,Ki,[27],> 20 µM
same,Ki,[28],> 13 µM
same,Ki,[29],1.2 µM
same,fraction unbound,[30],0.085
same,Ki,[31],0.72 µM
same,half-life,[32],1.4 h
same,clearance,[33],7.1 mL/min/kg
same,fraction unbound,[34],0.109
same,Vd,[35],2.2 L/kg
same,bioavailability,[36],32%
same,inhibition,[37],inactive
same,fraction unbound,[38],0.029
same,Ki,[39],3.9 µM
C[C@@H]1CCC[C@H](N2CCC(c3cc(Cl)ccc3-n3cccn3)=CC2=O)c2cc(ccn2)-c2c(cnn2C)NC1=O,EC1.5,[2],8.9 µM
same,Ki,[3],0.011 µM
C[C@@H]1CCC[C@H](N2CCC(c3cc(Cl)ccc3-n3ccnn3)=CC2=O)c2cc(ccn2)-c2c(cnn2C)NC1=O,half-life,[1],1.13 h
same,EC1.5,[2],0.36 µM
C[C@@H]1CCC[C@H](N2CCC(c3cc(Cl)ccc3-n3ccnn3)=CC2=O)c2cc(ccn2)-c2c(cnn2CC(F)F)NC1=O,half-life,[1],1.27 h
same,EC1.5,[2],1.54 µM
same,Ki,[3],0.011 µM

# Source: ChEMBL document CHEMBL5038606 (J Med Chem, 2022)
